Each structure is given as a SMILES string. Activity calls are given as the source filed them. No stated cut-off is given here; in the data, actives have a measured IC50 and inactives only a lower limit.

The IC50 is the concentration at which inhibition is half-maximal.

Chain of Envelope glycoprotein gp160 (Q6QLK5 whole entry, the tested form may be a part): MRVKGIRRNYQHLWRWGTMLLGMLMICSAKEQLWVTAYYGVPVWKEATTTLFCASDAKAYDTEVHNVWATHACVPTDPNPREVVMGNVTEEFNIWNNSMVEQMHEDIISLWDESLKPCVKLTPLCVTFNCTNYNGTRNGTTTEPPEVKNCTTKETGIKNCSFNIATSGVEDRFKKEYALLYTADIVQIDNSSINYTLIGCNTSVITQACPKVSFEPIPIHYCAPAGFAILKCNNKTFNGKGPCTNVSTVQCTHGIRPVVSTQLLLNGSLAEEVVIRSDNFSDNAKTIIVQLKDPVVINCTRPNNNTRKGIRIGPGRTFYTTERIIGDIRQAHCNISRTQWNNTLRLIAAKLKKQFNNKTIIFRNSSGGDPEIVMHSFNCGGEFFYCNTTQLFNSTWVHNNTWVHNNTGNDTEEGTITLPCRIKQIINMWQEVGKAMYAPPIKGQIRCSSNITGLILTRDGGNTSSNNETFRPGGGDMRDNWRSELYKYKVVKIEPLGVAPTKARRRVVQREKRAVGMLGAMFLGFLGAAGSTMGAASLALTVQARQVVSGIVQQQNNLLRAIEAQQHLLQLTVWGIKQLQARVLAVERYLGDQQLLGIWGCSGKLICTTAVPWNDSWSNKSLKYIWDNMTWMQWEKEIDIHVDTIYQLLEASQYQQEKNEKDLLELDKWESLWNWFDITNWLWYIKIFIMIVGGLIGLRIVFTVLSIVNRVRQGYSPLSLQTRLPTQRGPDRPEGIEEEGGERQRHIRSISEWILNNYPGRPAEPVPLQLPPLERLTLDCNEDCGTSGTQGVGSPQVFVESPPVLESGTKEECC

The assay concerns the target Envelope glycoprotein gp160 (Human immunodeficiency virus 1, UniProt Q6QLK5). The assay can be described thus: inhibitors of HIV fusion peptide binding, primary screen, biochemical, uHTS, fluorescence dequenching (AID 1986).
`O=C(O)CN1C(=O)/C(=C\c2cc(Br)ccc2OCc2ccc(F)cc2)SC1=S`: the IC50 is 10.7 µM (active).
On to `CCCOc1cccc(C2C(C(=O)c3cc4ccccc4o3)=C(O)C(=O)N2c2cc(C)on2)c1` (centres undefined), for which the IC50 was 16.9 µM (active).
The result for `O=C(CCN1C(=O)/C(=C/c2ccco2)SC1=S)Nc1ccc(C(=O)O)c(O)c1` reads 14.7 µM (active).
The result for `O=C(O)CN1C(=O)/C(=C\c2cc(Br)ccc2OCc2ccccc2Cl)SC1=S` reads 14.3 µM (active).
